This test deals with human ES cell line H1. Description: Attachment, plating efficiency and passage time of H1 human ES cells on surface modified plates (Examples 3, 4). In kind it is cell-based. The protocol: Human ES cells of the line H1, at passage 49 were maintained in MEF conditioned media on Nunclon Delta™ plates treated with a 1:30 dilution of growth factor reduced Matrigel™, prior to study. Cells were dissociated from the surface for passage by 1 mg/ml collagenase dissociation or by manual scraping.
These cells were then seeded onto two untreated wells of the surface modified plates (6-well format). Additionally, one well of each plate was treated with 0.1% xeno-free human gelatin as a control. Cells were also plated directly onto untreated and gelatin-treated wells of Costar™ (cat. no. 3516; Corning, Corning, N.Y.), Falcon™ (cat. no. 351146; Becton Dickinson, Franklin Lakes, N.J.) and Nunclon Delta™ (cat. no. 140675; Thermo Fisher Scientific, Roskilde, Denmark) 6-well plates for negative controls, and plated onto wells treated with 1:30 dilution of growth factor reduced Matrigel™ to provide as positive controls. In all treatments cells were maintained in MEF conditioned media.
Human ES cells of the line H1, at passage 49 were maintained in MEF conditioned media on Nunclon Delta™ plates treated with a 1:30 dilution of growth factor reduced Matrigel™, prior to study. Cells were dissociated from the surface for passage by 1 mg/ml collagenase dissociation.
These cells were then seeded onto untreated wells of surface modified plates (6-well format). […]

Regarding `C[C@@H](N)[C@H]1CC[C@H](C(=O)Nc2ccncc2)CC1` [Surface Y-27632, Y-27632], the plating efficiency result (H1 (p52) on surface modified plates, 10 μM Y-27632 in MEF conditioned media for 48 hours) was “significantly increased plating efficiency”. For the same compound, the “readiness for passage 4 days after plating” value (H1 on surface modified plates, 10 μM Y-27632 or 0.5 ng/ml C3 exotransferase) is given as “could be passaged 4 days after plating”.

For the origin of these results see patent US11001802B2, “Surface of a vessel with polystyrene, nitrogen, oxygen and a static sessile contact angle for attachment and cultivation of cells” (Nunc A/S, priority 2008, dated 2021).
